Assay results as given in US20080058271A1, “Prevention of primary sjogren' s Syndrome by ICA69 deficiency” (priority 2002, published 2008).
Ends that are not written are not given here.

Key:
[1] = tested on: MHC class II; settings: reference 21; cited from earlier work
[2] = tested on: peripheral blood mononuclear cells (PBMC); experiment: Human T cell proliferative responses in PBMC; assay type: cell-based; settings: for T cell responses in patients with SLE and in healthy controls / patients with primary SS with positive T cell responses: PBMC; for T cell responses in patients with SLE and in healthy controls: SLE n=6, healthy controls n=12; for patients with primary SS with positive T cell responses: n=9, P 0.008 vs. SLE, P 0.004 vs. healthy controls; for T cell responses to control antigens (stimulation index): PBMC of primary SS, SLE patients and healthy controls
Procedure: FIG. 7.(A) T cell responses to ICA69, BSA, Tep69, and ABBOS were analyzed in patients with primary SS (n=9) SLE patients (n=6) or healthy controls (n=12). Positive responses to tetanus toxoid (TT) contrasted with negative responses to OVA, actin or the type 1 diabetes-associated GAD65 peptide, p555. Data are expressed as stimulation index (SI, experimental/background cpm, as described herein). Background counts were similar in all cohorts (mean±SD: 1154±354 cpm). FIG. 8. Autoantibodies to ICA69 (1 μg protein/lane) were detected in Western blots of sera (1 to 1000 dilution) from patients with pSS (lanes 1-5) but not in controls (lanes 6-8).
Blood samples were obtained from patients (n=15) with primary SS or SLE at the Arthritis Center at Toronto Western Hospital and from healthy, adult volunteers through ethics-board approved consent (n=12). pSS patients were female, had documented xerostomia and xerophthalmia and met San Diego disease criteria. All were anti-Ro antibody positive, 6 had anti-fodrin autoantibodies and all had minor salivary gland biopsy focus scores of >5. Healthy controls (n=12) of similar age and gender profile were recruited from staff. Fresh blood was used for T cell studies. In immunoblotting experiments, sera from patients and controls were diluted at 1:1000 and blotted on nitrocellulose containing […] of recombinant ICA69 protein to detect the presence of anti-ICA69 antibodies.
(§1) NOD lymph-node, spleen and human peripheral blood T cell responses were measured with three slightly different protocols. Draining lymph node cells from 10 week old NOD females were pooled. 2×10^5 lymph node cells along with 2×10^5 irradiated (1100 rad) syngeneic spleen cells were cultured in serum-free AIM-V media (Life Technologies, Mississauga, Ontario, Canada) in the presence of protein or peptide antigen. Proteins (ICA69, BSA or OVA) were used at concentrations of […], peptides (Tep69, ABBOS) at […]. After 72 hr of incubation, cultures were pulsed overnight with […] of [^3H]thymidine, harvested and subjected to liquid scintillation counting. Experiments were repeated three times with similar results, each with lymph nodes pooled from groups of 4-7 mice. Proliferation assays with spleen cells used 4×10^5 responding cells/well and no irradiated splenocytes. For the detection of human T cell responses, Ficoll-Hypaque purified peripheral blood mononuclear cells (PBMC) were cultured at 10^5 cells/well for one week in serum-free Hybrimax 2897 medium (Sigma) supplemented with human IL-2 (10 U/well) and 0.01-10 mg of antigen^15. This assay performed well in a large, blinded study and in the first international T cell workshop of the Immunology of Diabetes Society^22.
Proliferative T cell responses were expressed as stimulation index (SI, experimental/control cpm). SI's greater than the mean SI in OVA-stimulated cultures plus 3 SD were deemed positive^15. Numeric data were compared by Mann-Whitney tests, Fisher's exact test was used to analyze tables. All P values were two-tailed and significance was set at 5%. Figures present mean values plus lSD.
To determine if ICA69 was an autoimmune target in patients with primary SS, we first measured T cell responses to ICA69 and Tep69 in PBMC from patients with primary SS (n=9), systemic lupus erythematosus (SLE, n=6) and age-matched healthy controls (n=12) (FIG. 7A).

[3] = tested on: NOD lymph node cells; experiment: T cell proliferative responses in draining lymph node cells; assay type: cell-based, mouse; settings: 10 week old NOD females, pooled lymph node cells
Procedure: FIG. 2. T cell proliferative responses to ICA69, its dominant epitope, Tep69, BSA, and its dominant NOD mouse epitope, ABBOS, were measured in lymph nodes draining the pancreas (A), and submandibular glands (B), or lymph nodes draining the lower (C) or upper (D) extremities. Gray columns: control cultures stimulated with ovalbumin (OVA) or Medium (MED) only. To obtain sufficient cell numbers, lymph node cells were pooled from seven mice. One of three similar data sets is shown.
as §1
This phenotype could reflect a role for ICA69 as an autoantigen or a role for ICA69 protein-function. To begin an analysis of these two alternatives, we measured T cell autoreactivity to ICA69 and its immunodominant T cell epitope, Tep69, in 10 week old NOD females. Proliferative in vitro recall responses were assessed in draining lymph nodes from various tissues, in order to localize where T cell tolerance to ICA69 was lost. […] Spleen cell responses to ICA69, Tep69, BSA and ABBOS were present as previously described by us^21 and others^24 (data not shown, but for example see FIG. 3F).

[4] = tested on: NOD mouse sialoadenitis (submandibular gland mononuclear foci); settings: single i.p. 200 mg ABBOS in IFA, 10 wk old NOD females
[5] = tested on: NOD mouse pSS (salivary disease); settings: instantly disclosed protocol

## AFIKATGKKEDE [Tep69]
[1]
  MHC class II affinity: very low
[2]
  T cell responses in patients with SLE and in healthy controls: absent
  patients with primary SS with positive T cell responses: 8 of 9
[3]
  T cell proliferative responses in pancreatic and submandibular lymph node cells: detected
  T cell proliferative responses in popliteal or axillary lymph nodes: not in popliteal or axillary lymph nodes

## FKADEKKFWGKYLYE [ABBOS, FKADEKKFWGKYLYE]
[4]
  mice with moderate disease exacerbation: 12%
  mice with moderate disease exacerbation (of mice analyzed): 2/17
[5]
  disease acceleration with the optimized treatment protocol: no acceleration

## OVA: Ovalbumin (Sigma), control antigen
[2]
  T cell responses to control antigens (stimulation index): negative

## TT: tetanus toxoid, positive control antigen
[2]
  T cell responses to control antigens (stimulation index): Positive

## actin
[2]
  T cell responses to control antigens (stimulation index): negative

B1: ICA69: Human recombinant islet cell autoantigen 69 kDa (protein)
chain: MSGHKCSYPWDLQDRYAQDKSVVNKMQQKYWETKQAFIKATGKKEDEHVVASDADLDAKLELFHSIQRTCLDLSKAIVLYQKRICFLSQEENELGKFLRSQGFQDKTRAGKMMQATGKALCFSSQQRLALRNPLCRFHQEVETFRHRAISDTWLTVNRMEQCRTEYRGALLWMKDVSQELDPDLYKQMEKFRKVQTQVRLAKKNFDKLKMDVCQKVDLLGASRCNLLSHMLATYQTTLLHFWEKTSHTMAAIHESFKGYQPYEFTTLKSLQDPMKKLVEKEEKKKINQQESTDAAVQEPSQLISLEEENQRKESSSFKTEDGKSILSALDKGSTHTACSGPIDELLDMKSEEGACLGPVAGTPEPEGADKDDLLLLSEIFNASSLEEGEFSKEWAAVFGDGQVKEPVPTMALGEPDPKAQTGSGFLPSQLLDQNMKDLQASLQEPAKAASDLTAWFSLFADLDPLSNPDAVGKTDKEHELLNA
[2]
  T cell responses in patients with SLE and in healthy controls: absent
  patients with primary SS with positive T cell responses: 8 of 9
[3]
  T cell proliferative responses in pancreatic and submandibular lymph node cells: detected
  T cell proliferative responses in popliteal or axillary lymph nodes: not in popliteal or axillary lymph nodes
